Type in all cases: ADME, organism-based
Data set [1] deals with Homo sapiens. In words: (§1) Evaluation of pharmacokinetic parameters for Felodipine following single oral administration of Felodipine immediate or extended-release tablets. Set-up: dose 10 mg, dose 20 mg, route oral. The settings on record: in vivo, po, dosed compound id 10, dosed compound name FELODIPINE, regimen Single dose, tissue Plasma.
A short description of data set [2]: as §1. Set-up: dose 10 mg, dose 20 mg, route oral. The note with it: human, in vivo; dosed compound id 10, dosed compound name FELODIPINE, regimen Single dose, route oral, tissue Plasma.
Data set [3] has as its system Homo sapiens. In words: (§2) Evaluation of pharmacokinetic parameters for Felodipine following multiple oral administration of Felodipine immediate-release tablets. The note with it: in vivo, dose 10 mg, dosed compound id 10, dosed compound name FELODIPINE, gender male and female, regimen Once daily, route oral, tissue Plasma. More on the design: dose 10 mg, route oral.

Data set [4] in a line: as §2. More on the design: dose 10 mg, route oral. The note with it: human, in vivo, 10 mg, dosed compound id 10, dosed compound name FELODIPINE, gender male and female, regimen Once daily, tissue Plasma.

This is an account of results in ChEMBL document CHEMBL3832551, “DailyMed|setid=dd39c559-5c5d-4d3b-9228-c44085e1699f | FELODIPINE - felodipine tablet, film coated, extended release|Aurobindo Pharma Limited”.

With `CCOC(=O)C1=C(C)NC(C)=C(C(=O)OC)C1c1cccc(Cl)c1Cl` (stereo not drawn) [FELODIPINE], the Cmin ss in data set [1] (dose 10 mg, gender young male and female) stood at 2 nM; in data set [1] (dose 20 mg, gender male and female), 7 nM; in data set [3] it was 0.5 nM. Further, the Cmax (usually the maximum level reached in the sampled fluid or tissue) turned out to be 23 nM in data set [1] (gender male and female); 7 nM in data set [1] (gender young male and female); 20 nM in data set [4]. In data set [2], the Tmax (in general, the time at which the peak concentration occurs) fell in the range of 2.5 to 5 h. Further, in data set [2], the bioavailability (in general, dose-corrected exposure relative to a reference, in per cent) came out at 5%.
